Test results published in US8691753B2 (priority 2009, dated 2014).
Like-named read-outs stand apart in the source and are kept apart here.

Assays:
Assay type in all cases: biochemical
MMP-14h = MMP-14h (Homo sapiens (Human), UniProt P50281); assay: Inhibition constant (Ki) on MMP-14h; conditions: human MMP-14
Outline: (§1)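 Compounds are evaluated on human MMPs, and Ki is derived as set out in an earlier publication.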

MMP-12h = MMP-12h (Homo sapiens (Human), UniProt P39900); assay: Inhibition constant (Ki) on MMP-12h; conditions: human MMP-12
MMP-12h, sequence (P39900 106-470): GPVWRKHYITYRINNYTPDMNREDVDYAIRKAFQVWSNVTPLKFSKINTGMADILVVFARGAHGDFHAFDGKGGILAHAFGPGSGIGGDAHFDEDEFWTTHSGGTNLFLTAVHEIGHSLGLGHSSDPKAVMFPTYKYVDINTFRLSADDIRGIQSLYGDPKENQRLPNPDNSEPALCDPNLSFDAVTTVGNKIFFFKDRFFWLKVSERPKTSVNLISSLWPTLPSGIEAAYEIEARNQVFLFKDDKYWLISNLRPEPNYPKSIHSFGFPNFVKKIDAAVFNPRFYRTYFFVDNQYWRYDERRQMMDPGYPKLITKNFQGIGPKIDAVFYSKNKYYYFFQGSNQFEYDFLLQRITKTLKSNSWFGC

MMP-9h = MMP-9h (Homo sapiens (Human), UniProt P14780); assay: Inhibition constant (Ki) on MMP-9h; conditions: human MMP-9
MMP-9h, sequence (P14780 94-707): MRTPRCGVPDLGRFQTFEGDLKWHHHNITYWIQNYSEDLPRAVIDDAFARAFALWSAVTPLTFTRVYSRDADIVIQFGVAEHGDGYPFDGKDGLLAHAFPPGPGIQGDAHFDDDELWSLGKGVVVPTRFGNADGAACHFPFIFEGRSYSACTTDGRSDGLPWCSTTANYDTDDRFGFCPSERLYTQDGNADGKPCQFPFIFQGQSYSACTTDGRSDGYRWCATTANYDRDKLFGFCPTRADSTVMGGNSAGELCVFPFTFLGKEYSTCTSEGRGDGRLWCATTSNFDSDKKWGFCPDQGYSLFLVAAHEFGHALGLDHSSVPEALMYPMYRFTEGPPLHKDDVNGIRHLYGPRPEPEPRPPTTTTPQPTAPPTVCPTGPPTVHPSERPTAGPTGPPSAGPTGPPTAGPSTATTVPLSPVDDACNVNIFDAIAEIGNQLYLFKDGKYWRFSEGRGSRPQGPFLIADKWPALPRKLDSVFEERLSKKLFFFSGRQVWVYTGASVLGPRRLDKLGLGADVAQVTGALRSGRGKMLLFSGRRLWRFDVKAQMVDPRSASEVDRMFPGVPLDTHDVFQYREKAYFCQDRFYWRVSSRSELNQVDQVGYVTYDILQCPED
Outline: as §1

MMP-2h = MMP-2h (Homo sapiens (Human), UniProt P08253); assay: Inhibition constant (Ki) on MMP-2h; conditions: human MMP-2
MMP-2h, sequence (P08253 110-660): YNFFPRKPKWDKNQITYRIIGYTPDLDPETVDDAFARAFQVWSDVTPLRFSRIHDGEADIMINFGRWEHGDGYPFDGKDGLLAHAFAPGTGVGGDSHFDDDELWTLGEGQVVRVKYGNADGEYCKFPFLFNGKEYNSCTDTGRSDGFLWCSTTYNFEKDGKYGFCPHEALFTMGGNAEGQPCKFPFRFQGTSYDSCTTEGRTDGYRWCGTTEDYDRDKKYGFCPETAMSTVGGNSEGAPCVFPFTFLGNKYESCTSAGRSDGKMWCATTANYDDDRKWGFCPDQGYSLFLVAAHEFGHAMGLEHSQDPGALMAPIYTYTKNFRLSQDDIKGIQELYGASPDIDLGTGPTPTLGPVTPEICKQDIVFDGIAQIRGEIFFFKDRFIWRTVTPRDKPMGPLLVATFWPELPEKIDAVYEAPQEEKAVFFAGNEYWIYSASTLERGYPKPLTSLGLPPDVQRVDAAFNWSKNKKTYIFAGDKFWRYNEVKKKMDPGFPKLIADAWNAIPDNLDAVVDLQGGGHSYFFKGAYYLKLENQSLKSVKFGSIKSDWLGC
Outline: as §1

MMP-13h = MMP-13h (Homo sapiens (Human), UniProt P45452); assay: Inhibition constant (Ki) on MMP-13h; conditions: human MMP-13
Outline: as §1

MMP-10h = MMP-10h (Homo sapiens (Human), UniProt P09238); assay: Inhibition constant (Ki) on MMP-10h; conditions: human MMP-10
MMP-10h, sequence (P09238 99-476): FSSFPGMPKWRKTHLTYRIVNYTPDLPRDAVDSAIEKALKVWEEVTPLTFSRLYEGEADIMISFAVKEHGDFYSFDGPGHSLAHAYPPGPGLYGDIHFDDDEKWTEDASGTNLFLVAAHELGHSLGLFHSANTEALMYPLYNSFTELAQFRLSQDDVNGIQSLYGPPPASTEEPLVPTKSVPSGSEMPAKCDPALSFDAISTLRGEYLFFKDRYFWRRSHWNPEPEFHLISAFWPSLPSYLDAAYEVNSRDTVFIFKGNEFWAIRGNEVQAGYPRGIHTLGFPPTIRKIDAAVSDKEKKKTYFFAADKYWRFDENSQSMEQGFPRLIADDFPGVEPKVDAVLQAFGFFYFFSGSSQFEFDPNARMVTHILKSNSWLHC

MMP-3h = MMP-3h (Homo sapiens (Human), UniProt P08254); assay: Inhibition constant (Ki) on MMP-3h; conditions: human MMP-3
MMP-3h, sequence (P08254 100-477): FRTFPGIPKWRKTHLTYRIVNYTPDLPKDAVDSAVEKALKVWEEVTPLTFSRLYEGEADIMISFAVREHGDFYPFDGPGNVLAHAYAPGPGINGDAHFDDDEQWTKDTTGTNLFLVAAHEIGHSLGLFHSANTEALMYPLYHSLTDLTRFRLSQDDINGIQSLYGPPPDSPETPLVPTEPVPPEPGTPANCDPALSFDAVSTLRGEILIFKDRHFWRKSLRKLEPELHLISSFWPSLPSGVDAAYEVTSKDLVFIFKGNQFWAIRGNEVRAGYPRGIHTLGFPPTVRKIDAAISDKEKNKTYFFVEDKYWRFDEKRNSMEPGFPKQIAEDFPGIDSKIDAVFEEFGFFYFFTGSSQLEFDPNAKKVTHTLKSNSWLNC
Outline: as §1

MMP-8h = MMP-8h (Homo sapiens (Human), UniProt P22894); assay: Inhibition constant (Ki) on MMP-8h; conditions: human MMP-8
MMP-8h, sequence (P22894 101-467): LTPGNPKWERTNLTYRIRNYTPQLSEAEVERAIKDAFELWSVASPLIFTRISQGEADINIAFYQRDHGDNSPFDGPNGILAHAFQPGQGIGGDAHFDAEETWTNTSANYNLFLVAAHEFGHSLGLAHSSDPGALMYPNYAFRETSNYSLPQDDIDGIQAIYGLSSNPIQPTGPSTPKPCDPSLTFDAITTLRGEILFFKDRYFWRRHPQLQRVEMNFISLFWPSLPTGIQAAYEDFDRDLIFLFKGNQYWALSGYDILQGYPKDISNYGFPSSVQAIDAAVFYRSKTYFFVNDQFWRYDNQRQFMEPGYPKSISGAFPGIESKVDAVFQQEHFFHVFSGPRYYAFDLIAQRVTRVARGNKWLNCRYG

Compound	Ki (MMP-14h; read-out: Ki MMP-14h) [nM]	Ki (MMP-12h; read-out: Ki MMP-12h) [nM]	Ki (MMP-9h; read-out: Ki MMP-9h) [nM]	Ki (MMP-2h; read-out: Ki MMP-2h) [nM]	Ki (MMP-13h; read-out: Ki MMP-13h) [nM]	Ki (MMP-10h; read-out: Ki MMP-10h) [nM]	Ki (MMP-3h; read-out: Ki MMP-3h) [nM]	Ki (MMP-8h; read-out: Ki MMP-8h) [nM]	Ki (MMP-14h) [nM]	Ki (MMP-12h) [nM]	Ki (MMP-9h) [nM]	Ki (MMP-2h) [nM]	Ki (MMP-13h) [nM]	Ki (MMP-10h) [nM]	Ki (MMP-3h) [nM]	Ki (MMP-8h) [nM]
NC(=O)[C@H](CC(=O)O)NC(=O)[C@H](CC(=O)O)NC(=O)CCc1cc(-c2ccc(-c3ccccc3)cc2)no1 [Compound 19, (S)-4-amino-3-((S)-2-(3-(3-(biphenyl-4-yl)isoxazol-5-yl)propanamido)-3-carboxypropanamido)-4-oxobutanoic acid]	> 1000	54	> 1000	52	24	527	750	> 1000								
NC(=O)[C@@H](CCC(=O)O)NC(=O)[C@H](CCC(=O)O)NC(=O)CCc1cc(-c2ccc(-c3cccc(Cl)c3)cc2)no1 [Compound 5, (R)-5-amino-4-((S)-4-carboxy-2-(3-(3-(3′-chlorobiphenyl-4-yl)isoxazol-5-yl)propanamido)butanamido)-5-oxopentanoic acid]	> 1000	8.9	> 1000	112	53	44	240	552								
NC(=O)CC[C@H](NC(=O)[C@H](CCC(=O)O)NC(=O)CCc1ccc(-c2ccccc2)cc1)C(N)=O [Compound 42, (S)-4-(3-(biphenyl-4-yl)propanamido)-5-((S)-1,5-diamino-1,5-dioxopentan-2-ylamino)-5-oxopentanoic acid]									> 1000	48	> 1000	448	884	> 1000	> 5000	285
NC(=O)[C@H](CCC(=O)O)NC(=O)[C@H](CCC(=O)O)NC(=O)CCc1ccc(-c2cc(Cl)cc(Cl)c2)cc1 [Compound 58, (S)-5-amino-4-((S)-4-carboxy-2-(3-(3′,5′-dichlorobiphenyl-4-yl)propanamido)butanamido)-5-oxopentanoic acid]	> 1000	56	391	> 1000	> 1000	> 1000	> 1000	> 5000								
NC(=O)[C@H](CC(=O)O)NC(=O)[C@H](CC(=O)O)NC(=O)CCc1cc(-c2ccc(-c3cccc(Cl)c3)cc2)no1 [Compound 10, (S)-4-amino-3-((S)-3-carboxy-2-(3-(3-(3′-chlorobiphenyl-4-yl)isoxazol-5-yl)propanamido)propanamido)-4-oxobutanoic acid]	> 1000	59	> 1000	86	18	93	85	649								
O=C(O)CC[C@H](NC(=O)CCc1ccc(-c2cccs2)cc1)C(=O)Nc1cccc(CC(=O)O)c1 [Compound 90, (S)-5-(3-(carboxymethyl)phenylamino)-5-oxo-4-(3-(4-(thiophen-2-yl)phenyl)propanamido)pentanoic acid]	430	8	284	116	366	143	> 1000	18								
NC(=O)[C@H](CCCC(=O)O)NC(=O)[C@H](CCCC(=O)O)NC(=O)CCc1cc(-c2ccc(-c3cccc(Cl)c3)cc2)no1 [Compound 13, (S)-6-amino-5-((S)-5-carboxy-2-(3-(3-(3′-chlorobiphenyl-4-yl)isoxazol-5-yl)propanamido)pentanamido)-6-oxohexanoïque]									553	348	605	> 1000	91	> 5000	575	638
NC(=O)[C@H](CCC(=O)O)NC(=O)[C@H](Cc1cnc[nH]1)NC(=O)CCc1ccc(-c2cc(-c3ccccc3)cs2)cc1 [Compound 104, (S)-4-((S)-3-(1H-imidazol-5-yl)-2-(3-(4-(4-phenylthiophen-2-yl)phenyl)propanamido)propanamido)-5-amino-5-oxopentanoic acid]	> 5000	40	> 5000	> 5000	> 1000	> 5000	> 10000	> 1000								
NC(=O)[C@H](Cc1c[nH]cn1)NC(=O)[C@H](CCC(=O)O)NC(=O)CCc1ccc(-c2ccc(-c3ccccc3)cc2)cc1 [Compound 67, (S)-5-((S)-1-amino-3-(1H-imidazol-4-yl)-1-oxopropan-2-ylamino)-4-(3-(4′-phenylbiphenyl-4-yl)propanamido)-5-oxopentanoic acid]	> 1000	10.2	> 1000	68	36	168	337	526								
NC(=O)[C@H](CCCC(=O)O)NC(=O)[C@H](CCC(=O)O)NC(=O)CCc1cc(-c2ccc(-c3cccc(Cl)c3)cc2)no1 [Compound 12, (S)-6-amino-5-((S)-4-carboxy-2-(3-(3-(3′-chlorobiphenyl-4-yl)isoxazol-5-yl)propanamido)butanamido)-6-oxohexanoic acid]	> 5000	8.2	> 1000	150	52	51	129	452								
NC(=O)CC[C@H](NC(=O)CCc1cc(-c2ccc(-c3ccccc3)cc2)no1)C(=O)N[C@@H](CCC(=O)O)C(N)=O [Compound 20, (S)-5-amino-4-((S)-5-amino-2-(3-(3-(biphenyl-4-yl)isoxazol-5-yl)propanamido)-5-oxopentanamido)-5-oxopentanoic acid]	> 10000	412	> 1000	834	234	> 5000	> 1000	> 1000								
NC(=O)[C@H](CCC(=O)O)NC(=O)[C@H](CCC(=O)O)NC(=O)CCc1ccc(-n2cccc2)cc1 [Compound 36, (S)-4-(3-(4-(1H-pyrrol-1-yl)phenyl)propanamido)-5-((S)-1-amino-4-carboxy-1-oxobutan-2-ylamino)-5-oxopentanoic acid]									> 5000	59	> 1000	> 1000	> 1000	> 1000	> 1000	373
O=C(O)CC[C@H](NC(=O)CCc1ccc(-c2ccccc2)cc1)C(=O)Nc1cccc(CC(=O)O)c1 [Compound 52, (S)-4-(3-(biphenyl-4-yl)propanamido)-5-(3-(carboxymethyl)phenylamino)-5-oxopentanoic acid]	> 1000	12.7	> 1000	546	> 1000	433	> 5000	63								
Cc1nc(-c2ccc(CCC(=O)N[C@@H](CCC(=O)O)C(=O)N[C@@H](CCC(=O)O)C(N)=O)cc2)no1 [Compound 34, (S)-5-amino-4-((S)-4-carboxy-2-(3-(4-(5-methyl-1,2,4-oxadiazol-3-yl)phenyl)propanamido)butanamido)-5-oxopentanoic acid]	> 1000	887	> 5000	> 5000	> 1000	> 1000	> 1000	> 1000								
NC(=O)[C@H](CCC(=O)O)NC(=O)[C@H](CCC(=O)O)NC(=O)CCc1ccc(-c2nccs2)cc1 [Compound 37, (S)-5-amino-4-((S)-4-carboxy-2-(3-(4-(thiazol-2-yl)phenyl)propanamido)butanamido)-5-oxopentanoic acid]									> 1000	369	> 1000	657	240	> 1000	> 5000	> 1000
CC(C)C[C@H](NC(=O)[C@H](CCC(=O)O)NC(=O)CCc1ccc(-c2ccccc2)cc1)C(N)=O [Compound 50, (S)-5-((S)-1-amino-4-methyl-1-oxopentan-2-ylamino)-4-(3-(biphenyl-4-yl)propanamido)-5-oxopentanoic acid]	> 5000	76	> 5000	> 1000	> 1000	> 5000	> 50000	364								
NCCCC[C@H](NC(=O)[C@H](CCC(=O)O)NC(=O)CCc1ccc(-c2cccs2)cc1)C(N)=O [Compound 82, (S)-5-((S)-1,6-diamino-1-oxohexan-2-ylamino)-5-oxo-4-(3-(4-(thiophen-2-yl)phenyl)propanamido)pentanoic acid]	> 1000	44	> 1000	234	> 1000	> 1000	> 10000	73								
NC(=O)CC[C@H](NC(=O)[C@H](CCC(=O)O)NC(=O)CCc1ccc(-c2cccs2)cc1)C(N)=O [Compound 81, (S)-5-((S)-1,5-diamino-1,5-dioxopentan-2-ylamino)-5-oxo-4-(3-(4-(thiophen-2-yl)phenyl)propanamido)pentanoic acid]	> 1000	18.6	> 1000	204	801	651	> 10000	48								
